Test results taken from ChEMBL document CHEMBL5050844 (2019).
pIC50, pKd: −log10 of the molar value.

Columns and labels:
[1] = Induction of activation of human CD56+ CD3- NK cells co-cultured with human K562 cells in 5:1 ratio and assessed as increase in MIP1beta secretion at 10 uM measured by ELISA assay; format: functional, Natural killer cell
[2] = Induction of anti-CD3 antibodies-stimulated human T cell activation at 10 uM assessed fold increase in GM-CSF secretion measured by ELISA assay; format: functional, T cell line; note: reference of the scale not given here
[3] = Induction of anti-CD3/CD28 antibodies-stimulated human T cell activation at 0.3 uM assessed fold increase in CD25 expression measured by ELISA assay; format: functional, T cell line
[4] = Induction of activation of human CD56+ CD3- NK cells co-cultured with human K562 cells in 1:1 ratio and assessed as increase in MIP1beta secretion at 1 uM measured by ELISA assay; format: functional, Natural killer cell
[5] = Induction of anti-CD3/CD28 antibodies-stimulated human T cell activation at 10 uM assessed fold increase in GM-CSF secretion measured by ELISA assay; format: functional, T cell line
[6] = Induction of activation of human CD56+ CD3- NK cells co-cultured with human K562 cells in 1:1 ratio and assessed as increase in MIP1beta secretion at 10 uM measured by ELISA assay; format: functional, Natural killer cell
[7] = Induction of activation of human CD56+ CD3- NK cells co-cultured with human K562 cells in 5:1 ratio and assessed as increase in IFN-gamma secretion at 10 uM measured by ELISA assay; format: functional, Natural killer cell
[8] = Induction of activation of human CD56+ CD3- NK cells co-cultured with human K562 cells in 5:1 ratio and assessed as increase in MIP1beta secretion at 1 uM measured by ELISA assay; format: functional, Natural killer cell
[9] = Induction of anti-CD3/CD28 antibodies-stimulated human CD8+ T cell activation at 1.11 uM assessed fold increase in CD69 expression measured by flow cytometry analysis; format: functional, T cell line
[10] = Induction of activation of human CD56+ CD3- NK cells co-cultured with human K562 cells in 5:1 ratio and assessed as increase in TNF-alpha secretion at 10 uM measured by ELISA assay; format: functional, Natural killer cell
[11] = Induction of activation of human CD56+ CD3- NK cells co-cultured with human K562 cells in 5:1 ratio and assessed as increase in IFN-gamma secretion at 1 uM measured by ELISA assay; format: functional, Natural killer cell
[12] = Induction of anti-CD3 antibodies-stimulated human CD8+ T cell activation at 1.11 uM assessed fold increase in cell proliferation measured by flow cytometry analysis; format: functional, T cell line; note: reference of the scale not given here
[13] = Induction of anti-CD3/CD28 antibodies-stimulated human T cell activation at 1.11 uM assessed fold increase in IFN-gamma secretion measured by ELISA assay; format: functional, T cell line
[14] = Induction of anti-CD3 antibodies-stimulated human CD4+ T cell activation at 10 uM assessed fold increase in CD69 expression measured by flow cytometry analysis; format: functional, T cell line; note: reference of the scale not given here
[15] = Induction of activation of human CD56+ CD3- NK cells co-cultured with human K562 cells in 5:1 ratio and assessed as increase in TNF-alpha secretion at 1 uM measured by ELISA assay; format: functional, Natural killer cell
[16] = Induction of anti-CD3 antibodies-stimulated human CD8+ T cell activation at 10 uM assessed fold increase in cell proliferation measured by flow cytometry analysis; format: functional, T cell line; note: reference of the scale not given here
[17] = Induction of anti-CD3 antibodies-stimulated human T cell activation at 1 uM assessed fold increase in IL-2 secretion measured by ELISA assay; format: functional, T cell line; note: reference of the scale not given here
[18] = Induction of anti-CD3 antibodies-stimulated human T cell activation at 10 uM assessed fold increase in IFN-gamma secretion measured by ELISA assay; format: functional, T cell line; note: reference of the scale not given here
[19] = Induction of anti-CD3/CD28 antibodies-stimulated human T cell activation at 10 uM assessed fold increase in IFN-gamma secretion measured by ELISA assay; format: functional, T cell line
[20] = Induction of anti-CD3 antibodies-stimulated human exhausted CD8+ T cell activation assessed fold increase in CTLA4 expression measured by flow cytometry analysis; format: functional, T cell line; note: reference of the scale not given here
[21] = Induction of anti-CD3 antibodies-stimulated human exhausted CD4+ T cell activation assessed fold increase in CTLA4 expression measured by flow cytometry analysis; format: functional, T cell line; note: reference of the scale not given here
[22] = Induction of activation of human CD56+ CD3- NK cells co-cultured with human K562 cells in 1:1 ratio and assessed as increase in IFN-gamma secretion at 1 uM measured by ELISA assay; format: functional, Natural killer cell
[23] = target: T1, E3 ubiquitin-protein ligase CBL-B (Homo sapiens, UniProt Q13191); assay: Inhibition of N-terminal Avi-tagged human CBL-B (36 to 427 residues) incubated with 60 nM Src kinase for 1.5 hrs followed by incubation with fluorescently labeled UbcH5B-Ub for 1 hr and measured by TR-FRET assay; format: single protein
T1 sequence (Q13191 whole entry, the tested form may be a part): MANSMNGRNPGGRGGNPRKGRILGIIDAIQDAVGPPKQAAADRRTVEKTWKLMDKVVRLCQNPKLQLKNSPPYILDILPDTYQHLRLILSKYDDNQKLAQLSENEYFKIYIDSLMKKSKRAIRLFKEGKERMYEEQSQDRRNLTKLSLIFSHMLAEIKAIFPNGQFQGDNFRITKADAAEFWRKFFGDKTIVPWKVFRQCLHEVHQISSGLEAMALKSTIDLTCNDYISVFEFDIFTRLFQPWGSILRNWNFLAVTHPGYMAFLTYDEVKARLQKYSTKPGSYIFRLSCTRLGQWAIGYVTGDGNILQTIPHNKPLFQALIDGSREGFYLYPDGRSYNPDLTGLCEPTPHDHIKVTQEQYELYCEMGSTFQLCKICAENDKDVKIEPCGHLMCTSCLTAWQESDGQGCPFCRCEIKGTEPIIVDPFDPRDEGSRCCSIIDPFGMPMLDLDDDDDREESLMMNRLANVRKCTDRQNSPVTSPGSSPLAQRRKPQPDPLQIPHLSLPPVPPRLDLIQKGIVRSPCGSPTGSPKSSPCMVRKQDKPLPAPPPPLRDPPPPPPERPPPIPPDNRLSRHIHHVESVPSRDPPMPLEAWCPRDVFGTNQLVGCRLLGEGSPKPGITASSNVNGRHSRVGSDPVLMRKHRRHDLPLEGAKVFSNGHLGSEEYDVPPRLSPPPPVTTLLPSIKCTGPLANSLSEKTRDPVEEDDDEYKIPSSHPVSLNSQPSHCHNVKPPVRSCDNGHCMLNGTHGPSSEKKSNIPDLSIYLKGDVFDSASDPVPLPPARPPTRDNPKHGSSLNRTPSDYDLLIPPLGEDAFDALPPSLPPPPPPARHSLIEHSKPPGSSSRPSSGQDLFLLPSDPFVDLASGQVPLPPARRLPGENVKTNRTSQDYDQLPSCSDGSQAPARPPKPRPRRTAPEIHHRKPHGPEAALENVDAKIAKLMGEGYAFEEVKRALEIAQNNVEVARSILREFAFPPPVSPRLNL

[24] = Induction of anti-CD3 antibodies-stimulated human exhausted T cell activation assessed fold increase in GM-CSF secretion measured by ELISA assay; format: functional, T cell line; note: reference of the scale not given here
[25] = Induction of anti-CD3 antibodies-stimulated human T cell activation at 8 uM assessed fold increase in IL-2 secretion measured by ELISA assay; format: functional, T cell line; note: reference of the scale not given here
[26] = Induction of activation of human CD56+ CD3- NK cells co-cultured with human K562 cells in 1:1 ratio and assessed as increase in TNF-alpha secretion at 1 uM measured by ELISA assay; format: functional, Natural killer cell
[27] = target: T1, E3 ubiquitin-protein ligase CBL-B; assay: Binding affinity towards N-terminal biotinylated Avi-tagged human CBL-B (36 to 427 residues) measured by surface plasmon resonance assay
[28] = Induction of anti-CD3 antibodies-stimulated human CD8+ T cell activation in immunocompetent mouse assessed fold increase in CD25 expression at 90 mg/kg, ip administered thrice a day; format: functional; note: reference of the scale not given here
[29] = Induction of anti-CD3 antibodies-stimulated human CD4+ T cell activation in immunocompetent mouse assessed fold increase in CD25 expression at 180 mg/kg, po administered twice a day; format: functional; note: reference of the scale not given here
[30] = Induction of anti-CD3 antibodies-stimulated human CD8+ T cell activation in immunocompetent mouse assessed fold increase in CD25 expression at 90 mg/kg, po administered twice a day; format: functional; note: reference of the scale not given here
[31] = Induction of anti-CD3 antibodies-stimulated human CD8+ T cell activation in immunocompetent mouse assessed fold increase in CD25 expression at 135 mg/kg, po administered twice a day; format: functional; note: reference of the scale not given here
[32] = Induction of anti-CD3 antibodies-stimulated human CD4+ T cell activation in immunocompetent mouse assessed fold increase in CD25 expression at 90 mg/kg, po administered twice a day; format: functional; note: reference of the scale not given here
[33] = Induction of anti-CD3 antibodies-stimulated human CD4+ T cell activation in immunocompetent mouse assessed fold increase in CD25 expression at 135 mg/kg, po administered twice a day; format: functional; note: reference of the scale not given here
[34] = Induction of anti-CD3 antibodies-stimulated human CD8+ T cell activation in immunocompetent mouse assessed fold increase in CD25 expression at 180 mg/kg, po administered twice a day; format: functional; note: reference of the scale not given here

## Cn1cnnc1C(F)(F)[C@](C)(F)c1cccc(N2Cc3c(cc(C(=O)N4CC[C@H](O)C4)cc3C(F)(F)F)C2=O)c1
[1]
  fold change (FC): 1.01
[2]
  fold change (FC): 2.01
[3]
  fold change (FC): 1.01
[4]
  fold change (FC): <=1
[5]
  fold change (FC): 2.01
[6]
  fold change (FC): <=1
[7]
  fold change (FC): 1.01
[8]
  fold change (FC): <=1
[9]
  fold change (FC): <=1.2
[10]
  fold change (FC): 1.01
[11]
  fold change (FC): <=1
[12]
  fold change (FC): <=2
[13]
  fold change (FC): <=2
[14]
  fold change (FC): >1.601
[15]
  fold change (FC): 1.01
[16]
  fold change (FC): >4
[17]
  fold change (FC): 0.101
[18]
  fold change (FC): 2.01
[19]
  fold change (FC): 2.01
[20]
  fold change (FC): <=1.4
[21]
  fold change (FC): <=1.4
[22]
  fold change (FC): <=1
[23]
  pIC50: > 7.00
[24]
  fold change (FC): <=1.4
[25]
  fold change (FC): >=0.201
[26]
  fold change (FC): 1.01

## C[C@H](Cc1nncn1C)c1cccc(N2Cc3c(cc(CN4CC[C@H](F)C4)cc3C(F)(F)F)C2=O)c1
[1]
  fold change (FC): 1.01
[2]
  fold change (FC): >4
[3]
  fold change (FC): 1.01
[4]
  fold change (FC): 1.01
[5]
  fold change (FC): >4
[6]
  fold change (FC): 1.01
[7]
  fold change (FC): >=5
[8]
  fold change (FC): 1.01
[27]
  pKd: > 7.00
[9]
  fold change (FC): 1.201
[10]
  fold change (FC): >=5
[11]
  fold change (FC): 2.01
[12]
  fold change (FC): >4
[13]
  fold change (FC): >4
[14]
  fold change (FC): >1.601
[15]
  fold change (FC): 2.01
[16]
  fold change (FC): >4
[17]
  fold change (FC): 0.151
[18]
  fold change (FC): >4
[19]
  fold change (FC): >4
[20]
  fold change (FC): >1.61
[21]
  fold change (FC): >1.61
[22]
  fold change (FC): 2.01
[23]
  pIC50: > 7.00
[24]
  fold change (FC): >1.61
[25]
  fold change (FC): >=0.201
[26]
  fold change (FC): 2.01

## C[C@H](c1cc2c(c(C(F)(F)F)c1)CN(c1cccc(C3(Cc4nncn4C)COC3)c1)C2=O)N1CC[C@H](F)C1
[2]
  fold change (FC): 2.01
[28]
  fold change (FC): 1
[29]
  fold change (FC): 1
[3]
  fold change (FC): 1.31
[30]
  fold change (FC): 1
[5]
  fold change (FC): >4
[31]
  fold change (FC): 1
[9]
  fold change (FC): 1.201
[12]
  fold change (FC): 3.01
[13]
  fold change (FC): <=2
[14]
  fold change (FC): >1.601
[32]
  fold change (FC): 1
[33]
  fold change (FC): 1
[16]
  fold change (FC): >4
[17]
  fold change (FC): >=0.201
[18]
  fold change (FC): >4
[19]
  fold change (FC): 3.01
[20]
  fold change (FC): >1.61
[21]
  fold change (FC): >1.61
[23]
  pIC50: > 7.00
[34]
  fold change (FC): 1
[24]
  fold change (FC): >1.61
[25]
  fold change (FC): >=0.201
